# Reference: PMC10861593, “Kisspeptin-10 binding to Gpr54 in osteoclasts prevents bone loss by activating Dusp18-mediated dephosphorylation of Src” (Nature Communications, 2024)
# Where a SMILES comes first, the peptide text is derived from it.
# B1: △339–344 (deletion sign: △) mutant of GPR54 CT: GST-GPR54 CT m2 (delta 339–344) (protein)
# chain: HFRQAFRRVCPRRPRRPGPSDPAAPHAELLRLGSHPAPARAQKPGSSGLAARGLCVLGEDNAPL
# modifications: left off: GST, N-terminal, kept
# B2: peptide of GPR54^336–356 (peptide, UniProt Q969F8 336-356, looked up)
# peptide: RVCPCAPRRPRRPRRPGPSDP
# notes: human GPR54 (KiSS1R), residues 336-356 of the PR motif; source: synthetic peptide (GL Biochem)
# Experiments:
# DUSP18 [1] = target: T1, DUSP18 (Homo sapiens, UniProt Q8NEJ0); assay: SPR (Biacore T200) binding to DUSP18
# T1 construct: For purification of full-length WT human DUSP18 and DUSP18 (C104S) proteins; His (N); made in house; host or cells: E. coli
# T1 sequence (Q8NEJ0 1-188): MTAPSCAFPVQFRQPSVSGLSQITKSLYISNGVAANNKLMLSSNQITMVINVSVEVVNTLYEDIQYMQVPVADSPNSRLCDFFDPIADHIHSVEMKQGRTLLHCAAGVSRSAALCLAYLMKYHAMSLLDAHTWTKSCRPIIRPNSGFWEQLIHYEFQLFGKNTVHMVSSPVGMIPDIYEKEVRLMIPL
# Method: SPR was determined using a Biacore T200 instrument (GE). SRC or DUSP18 protein was immobilized on the sensor chip (CM5) using the amine-coupling method according to standard protocols. Immobilization was performed according to the manufacturer’s recommendations. SRC protein (64 ug/mL, pH5.0) or DUSP18 protein (25 ug/mL, pH7.4) was diluted in 10 mM acetate buffer or 10 mM PBS buffer. Sh2-sh3 (100 ug/mL, pH5.0) was diluted in 10 mM acetate buffer. The kinetics and affinity assay were examined at 25 °C at a flow rate of 30 µl/minute using PBS buffer with 0.05% Tween-20. The KD values were calculated with the kinetics analysis (1:1 model) of Biacore T200 evaluation software. The interaction of GPR54 CT, peptides of PR motifs with Src or DUSP18, and the interaction of DUSP18 and Src were analyzed respectively by regeneration with pH 2.0 Gly-HCl buffer.
# The C terminus of human GPR54 (H329- L398) and mouse Gpr54 (R331- L396) cDNAs were subcloned into a pGEX-4T2 vector. For purification of full-length WT human DUSP18 and DUSP18 (C104S) proteins, DUSP18 was cloned into pMCSG7 vector. […]
# GPR54 / Src interaction = assay: Co-IP: interaction of GPR54 with Src in transfected 293T cells; assay type: cell-based, human; conditions: inhibitor 1 h (U73122 10 µM, Staurosporine 0.25 µM, LY3214996 10 µM, KN-93 10 µM, Saracatinib 10 µM), then 10 nM Kp-10 20 min
# Method: Data represent means ± SEM. P values were determined by one-way ANOVA analysis (b, c, e, g, i, k). Representative results were obtained from at least three independent experiments. Source data are provided as a Source Data file.
# Whole-cell proteins were extracted using 1x RIPA buffer (25 mM Tris, pH7.5, 150 mM NaCl, 0.5% Sodium deoxycholate, 1% Triton-X-100) supplemented with protease inhibitors (Complete Mini, Roche) and phosphatase inhibitors (phosphatase inhibitor cocktail set I and II, Calbiochem). Immunoprecipitation and immunoblotting with indicated antibodies were performed as described in Supplementary Table 1. Image Jsoftware (V1.52) was used for quantification analysis. Uncropped and unprocessed blots are presented in the Supplementary Information file.
# Error bars are ± SEM. […] Source data are provided as a Source Data file.
# Src = assay: GST pull-down with WCL of 293T cells transfected with HA-Src; assay type: binding
# Description: Fig. 2 GPR54 recruited Src via the PR motif in GPR54 C-Terminus. a Sequence analysis of the PR motif in multiple species of GPR54 CT. b SH3 domain protein-binding array using the TranSignal™ SH3 Domain Array kit. The principal Src binding region is circled in red evident (1 Src; 2 the dilution of Src in half). c SPR binding-affinity measurement of Src and GPR54 CT. […] GPR54 CT bound with the SH3 domain of Src mainly via the key residues including R336, P339 and P342. e–h IB analysis of total samples and GST pull-downs using GST proteins including GST, GST-GPR54 CT, GST-GPR54 CT m1 (R336A&P339A), GST-GPR54 CT m2 (delta 339–344) incubated separately with WCL of 293 T cells transfected with HA-Src (e) and quantification of protein levels (f), IB analysis of WCL and anti-GPR54 IP assays derived from RAW264.7 cells induced by Kp-10 for 20 min (g) and quantification of protein levels (h). i, j IF staining was carried out using pre-osteoclasts differentiated from BMMs with M-CSF (10 ng/ml) and RANKL (50 ng/ml) stimulation for 2 days, then treated with 10 nM Kp-10 for 20 min. Representative images of endogenous Gpr54 and Src were shown by total internal reflection fluorescence (TIRF) microscopy (i), and the Mander’s overlap coefficient (MOC) as a measure of colocalization in cells from multiple images taken randomly (j). Scale bar, 50 μm. Data represent means ± SEM. […] These are best readings. […]
# DUSP18 [2] = assay: GST pull-down with WCL of 293T cells transfected with DUSP18; assay type: binding; conditions: WCL of 293T cells transfected with DUSP18-HA
# Method: Beads were analyzed by phosphatase activity assay (a), mass spectrometry assay (b), IB analysis (c) and quantification of protein levels (d). e, f Protein co-localization was analyzed by IF staining in primary pre-osteoclast with 10 nM Kp-10 treatment for 20 min. […] Scale bar, 50 µm. g, h binding affinity was measured by SPR binding analysis. […] Data represent means ± SEM. P values were determined by one-way ANOVA analysis (a, d, j, l) or two-tailed Student’s t-test (f). Representative results were obtained from at least three independent experiments. Source data are provided as a Source Data file.
# Supplementary Fig. 6 a, b IB and quantification of protein levels analysis. […] Error bars are ± SEM. P-values were determined by two-tailed Student’s t-test (b, e) or by one-way ANOVA analysis (h, j). *P <0.05, **P <0.01, ***P <0.001, ****P <0.0001. Representative results were observed from at least three independent experiments. Source data are provided as a Source Data file.
# Dusp18 knockout mice = assay: bone and osteoclast parameters in Dusp18 knockout mice; assay type: in vivo, mouse; conditions: TRAP staining and osteoclast parameters, femur
# Description: Data represent means ± SEM. […] Representative results were obtained from at least three independent experiments. Source data are provided as a Source Data file.
# [3] = target: T2, His-SRC protein, Src (G85-L536) (human, UniProt P12931 85-536); assay: SPR; Biacore T200, SRC protein immobilised on CM5 by amine coupling (64 ug/mL, pH 5.0, acetate); 25 °C, 30 µl/minute, PBS with 0.05% Tween-20; kinetics analysis, 1:1 model; conditions: both partners purified
# T2 construct: human Src, G85-L536, in pFastBac HT B; In the SPR it is called 'SRC protein'; removal of the tag is not mentioned; source: Sf9 (Bac-to-Bac baculovirus), purified; not shown: His6, N-terminal, kept
molecule,measurement,setting,value
CC(C)[C@H](NC(=O)[C@@H](N)CCCNC(=N)N)C(=O)N[C@@H](CS)C(=O)N1CCC[C@H]1C(=O)N[C@@H](CS)C(=O)N[C@@H](CS)C(=O)N[C@@H](CCCNC(=N)N)C(=O)O [Gpr54^336–342] (H-RVCPCCR-OH; N-terminus and C-terminus assumed),kon,"DUSP18 [1]; printed in the picture of the figure, read-out: ka",1130 ± 9500 M⁻¹ s⁻¹
COc1ccc(S(=O)(=O)N(CCO)c2ccccc2CN(C)C/C=C/c2ccc(Cl)cc2)cc1 [KN-93],effect on Kp-10 induced interaction of GPR54 with Src,GPR54 / Src interaction,not by the inhibitors
COc1ccc2c(c1)CC[C@@H]1[C@@H]2CC[C@]2(C)[C@@H](NCCCCCCN3C(=O)C=CC3=O)CC[C@@H]12 [U73122],effect on Kp-10 induced interaction of GPR54 with Src,GPR54 / Src interaction,not by the inhibitors
R336A&P339A mutant of human GPR54 CT: GST-GPR54 CT m1 (R336A&P339A),binding of Src (GST pull-down),Src,dramatically dampened the interaction of Src with GPR54 CT
same,binding of DUSP18 (GST pull-down),DUSP18 [2],dampened its interaction with DUSP18
O=C(Cc1ccc(-c2ccc(OCCN3CCOCC3)cc2)cn1)NCc1ccccc1 [KX2-391],rescue of Dusp18 deletion induced osteoclast activity,Dusp18 knockout mice,efficiently rescued
Gpr54^339–344: right-shifted mouse Gpr54 peptide which corresponds to the PxxRxR motif (PCCRQR),SPR curve when titrated with Dusp18,DUSP18 [1]; synthesized mouse Gpr54 peptide,generated an unfitted SPR curve
"AFRRVCPCAPRR (peptide, UniProt Q969F8 333-344, looked up, source: synthetic peptide (GL Biochem)) [GPR54^333–344 (N-terminal half of the PR motif)]",Kd,[3],28.3 µM
B1,binding of Src (GST pull-down),Src,completely abolished the binding of Src with GPR54 CT
same,binding of DUSP18 (GST pull-down),DUSP18 [2],abolished the binding with DUSP18
B2,Kd,[3],4.24 µM
